The test system of the assay is B6C3F1 mice, ip Sarcoma M5076, median survival T/C. In words: NCI In Vivo Anticancer Drug Screen. Data for tumor model Sarcoma M5076 (intraperitoneal) in B6C3F1 mice. The settings on record: endpoint: median survival time, schedule: Q04DX004 (ip), higher = longer survival. In outline:
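Mice carrying the transplanted tumour received compound treatment. Survival was recorded, and each value is the treated-group measurement divided by that of the vehicle-dosed control group.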

Setting [1] is: dose: 25.0 mg/kg/injection, vehicle: suspension in saline.
Where [2] appears, read: dose: 50.0 mg/kg/injection, vehicle: suspension in saline.
Where [3] appears, read: dose: 50.0 mg/kg/injection, vehicle: Klucel (hydroxypropylcellulose) (HPC).
Setting [4] is: dose: 100.0 mg/kg/injection, vehicle: Klucel (hydroxypropylcellulose) (HPC).
Setting [5] is: dose: 200.0 mg/kg/injection, vehicle: Klucel (hydroxypropylcellulose) (HPC).
Setting [6] is: dose: 75.0 mg/kg/injection, vehicle: saline with Tween-80.
Where [7] appears, read: dose: 150.0 mg/kg/injection, vehicle: saline with Tween-80.
Setting [8] is: dose: 300.0 mg/kg/injection, vehicle: saline with Tween-80.
The mark [9] stands for this setting: dose: 25.0 mg/kg/injection, vehicle: Klucel (hydroxypropylcellulose) (HPC).
Where [10] appears, read: dose: 25.0 mg/kg/injection, vehicle: saline with Tween-80.
[11] abbreviates: dose: 50.0 mg/kg/injection, vehicle: saline with Tween-80.
[12] abbreviates: dose: 200.0 mg/kg/injection, vehicle: saline with Tween-80.
Where [13] appears, read: dose: 18.75 mg/kg/injection, vehicle: saline with Tween-80.
The mark [14] stands for this setting: dose: 37.5 mg/kg/injection, vehicle: saline with Tween-80.

Molecules are shown by their SMILES. Values joined by “and” are separate entries in the source; they are usually repeats but may differ in a detail not shown here. Identical values can stand only once. Inconclusive results and toxic doses are left out.

Turning to `O=C(O)Cc1cccc2c(=O)cc(-c3ccccc3)oc12`, the T/C by setting is: (dose: 6.25 mg/kg/injection, vehicle: suspension in saline) 98 % of control; (dose: 12.5 mg/kg/injection, vehicle: suspension in saline) 95 % of control; under setting [1], 102 % of control; under setting [2], 100 % of control; (dose: 100.0 mg/kg/injection, vehicle: suspension in saline) 102 % of control.

For the molecule `O=C(Nc1ccc(Cl)c(Cl)c1)C1C(=O)C(=O)N(c2ccc(Cl)c(Cl)c2)C1=O` (stereo not given), the T/C runs as follows: under setting [3], 91 % of control; under setting [4], 92 % of control; under setting [5], 89 % of control.

Turning to `O=c1cc(-c2ccccc2)[nH]c2c1CCCC2`, the T/C was 91 % of control under setting [6]; 99 % of control under setting [7]; 106 % of control under setting [8]; 98 % of control (dose: 600.0 mg/kg/injection, vehicle: saline with Tween-80).

On to `Cc1ccc2c(c1)C1(C)OC(C=CC1=O)O2` (stereo not given), for which the T/C under setting [9] was 96 % of control and the T/C under setting [3] was 103 % of control.

As for `NC12CC3CC(CC(C3)C1)C2`, the T/C reads like this: under setting [10], 100 % of control; under setting [11], 94 % of control.

Regarding `O=c1c2ccccc2nc(-c2ccccc2)n1-c1nccs1`, the T/C is 94 % of control under setting [10]; 89 % of control under setting [12]; 90 % of control (dose: 400.0 mg/kg/injection, vehicle: saline with Tween-80).

For `CCC1(O)C(=O)OCc2c1cc1n(c2=O)Cc2cc3cc(N)ccc3nc2-1` (stereo not given), the T/C runs as follows: (dose: 7.5 mg/kg/injection, vehicle: suspension in saline) 160 % of control; (dose: 9.0 mg/kg/injection, vehicle: suspension in saline) 174 % of control; (dose: 15.0 mg/kg/injection, vehicle: suspension in saline) 170 % of control and 231 % of control; under setting [1], 150 % of control; (dose: 42.0 mg/kg/injection, vehicle: suspension in saline) 90 % of control.

For `O=c1[nH]cnc2c1ncn2C1CC2[O][Sn]([c]3ccccc3)([c]3ccccc3)[O]CC2O1` (stereo not given), the T/C is 106 % of control (dose: 37.5 mg/kg/injection, vehicle: distilled water + Tween-80); 104 % of control (dose: 75.0 mg/kg/injection, vehicle: distilled water + Tween-80); 101 % of control (dose: 150.0 mg/kg/injection, vehicle: distilled water + Tween-80); 105 % of control (dose: 300.0 mg/kg/injection, vehicle: distilled water + Tween-80); 110 % of control (dose: 600.0 mg/kg/injection, vehicle: distilled water + Tween-80).

Consider `CCNc1nc(NC(C)C)nc(-c2ccncc2)n1`, for which the T/C runs as follows: under setting [9], 93 % of control; under setting [3], 95 % of control; under setting [4], 95 % of control; under setting [5], 95 % of control.

For `CC(=O)c1cccc(NC2C(N)C(NC(=O)N(C)C)(C(C)O)C(C)(O)C2(O)COC(=O)c2c(C)cccc2O)c1` (stereo not given), the T/C is, setting by setting: (dose: 2.5 mg/kg/injection, vehicle: saline) 112 % of control and 114 % of control; (dose: 5.0 mg/kg/injection, vehicle: saline) 105 % of control and 115 % of control; (dose: 10.0 mg/kg/injection, vehicle: saline) 117 % of control and 120 % of control; (dose: 20.0 mg/kg/injection, vehicle: saline) 115 % of control.

Regarding `c1nnc(NCNc2nncs2)s1`, the T/C is, setting by setting: under setting [1], 113 % of control; under setting [2], 122 % of control; (dose: 144.0 mg/kg/injection, vehicle: suspension in saline) 154 % of control; (dose: 200.0 mg/kg/injection, vehicle: suspension in saline) 123 % of control; (dose: 240.0 mg/kg/injection, vehicle: suspension in saline) 164 % of control; (dose: 400.0 mg/kg/injection, vehicle: suspension in saline) 168 % of control and 177 % of control.

On to `COc1cccc(Sc2ccc([N+](=O)[O-])c3no[n+]([O-])c23)c1`, for which the T/C was 105 % of control (dose: 3.75 mg/kg/injection, vehicle: saline with Tween-80); 106 % of control (dose: 7.5 mg/kg/injection, vehicle: saline with Tween-80); 105 % of control (dose: 15.0 mg/kg/injection, vehicle: saline with Tween-80); 101 % of control (dose: 30.0 mg/kg/injection, vehicle: saline with Tween-80); 98 % of control (dose: 60.0 mg/kg/injection, vehicle: saline with Tween-80).

With `CN(C)CCOCC(O)(c1ccccc1)c1ccccc1`, the T/C is 100 % of control (dose: 37.5 mg/kg/injection, vehicle: saline) and 100 % of control (dose: 75.0 mg/kg/injection, vehicle: saline).

Regarding `Clc1ccc(OCC(Cn2ccnc2)c2ccc(Cl)cc2)cc1` (stereo not given), the T/C is, setting by setting: under setting [13], 115 % of control; under setting [14], 102 % of control; under setting [6], 101 % of control.

Consider `O=S(=O)(O)C1=CC(=N\Cl)/C=CC/1=N/Cl`, for which the T/C was 104 % of control under setting [14], 104 % of control under setting [6], 106 % of control under setting [7] and 108 % of control under setting [8].

With `Cn1c(=O)c2nncnc2n(C)c1=O`, the T/C is 94 % of control under setting [11]; 96 % of control (dose: 100.0 mg/kg/injection, vehicle: saline with Tween-80); 94 % of control under setting [12].

As to `CC(=O)OCCN1CCOC(O)(c2cccc(C(F)(F)F)c2)C1` (stereo not given), the T/C reads like this: (dose: 11.25 mg/kg/injection, vehicle: saline with Tween-80) 97 % of control; (dose: 22.5 mg/kg/injection, vehicle: saline with Tween-80) 96 % of control; (dose: 45.0 mg/kg/injection, vehicle: saline with Tween-80) 97 % of control; (dose: 90.0 mg/kg/injection, vehicle: saline with Tween-80) 100 % of control; (dose: 180.0 mg/kg/injection, vehicle: saline with Tween-80) 98 % of control.

As for `Cc1ccc(C(=Nc2ccccc2)N=P(c2ccccc2)(c2ccccc2)c2ccccc2)cc1`, the T/C by setting is: under setting [10], 106 % of control; under setting [11], 93 % of control.

In the case of `N#CC1C(=O)NC(=O)C(C#N)C1CCc1ccccc1` (stereo not given), the T/C reads like this: (dose: 50.0 mg/kg/injection, vehicle: Klucel + Tween-80) 105 % of control; (dose: 100.0 mg/kg/injection, vehicle: Klucel + Tween-80) 97 % of control; (dose: 200.0 mg/kg/injection, vehicle: Klucel + Tween-80) 105 % of control.

On to `c1ccc2c(c1)-c1ccccc1C1NC21` (stereo not given), for which the T/C under setting [13] was 93 % of control; the T/C under setting [14] was 98 % of control; the T/C under setting [6] is 94 % of control; the T/C under setting [7] is 96 % of control; the T/C under setting [8] is 102 % of control.

Turning to `CCCCNP1(NCCCC)=NP(NCCCC)(NCCCC)=NP(NCCCC)(NCCCC)=NP(NCCCC)(NCCCC)=N1`, the T/C is 96 % of control (dose: 3.13 mg/kg/injection, vehicle: saline with Tween-80); 104 % of control (dose: 6.25 mg/kg/injection, vehicle: saline with Tween-80); 102 % of control (dose: 12.5 mg/kg/injection, vehicle: saline with Tween-80); 96 % of control under setting [10]; 97 % of control under setting [11].

The values above are taken from PubChem BioAssay AID292 (DTP/NCI, 2004).
